From patent US10919896B2, “Preparation and uses of pyrimidinone derivatives” (Cancer Research Technology Limited, priority 2016, dated 2021)

Key:
Cdc7/Dbf4 = Cdc7/Dbf4 (Homo sapiens, UniProt O00311); test: Cdc7 Biochemical Assay Method 3: Cdc7/Dbf4 Enzyme TR-FRET Assay measuring pS40MCM2; details: 1 μM ATP, read-out: Biochemical Method 3 (pIC50) (converted)
Method in brief: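 2.5 nM Cdc7/Dbf4 incubated with 100 nM biotinylated MCM2-derived peptide and 1 μM ATP, 120 minutes at 25° C. Phospho-S40 detected by TR-FRET using anti-pS40 Mcm2 antibody, terbium anti-rabbit secondary and streptavidin-Alexa Fluor488.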

[1] = test system: Cdc7 (pS40MCM2 levels in HCT116 cells); test: Cdc7 Cell Pharmacodynamics Assay Method 2A: pS40MCM2 levels in HCT116 cells, 6 hours; format: cell-based; details: Homo sapiens, HCT-116, read-out: Biomarker Method 2A (pEC50) (converted)
Excerpt: (§1) This protocol describes a method to investigate the inhibition of Cdc7 activity by measuring pS40MCM2 levels in cells, after treatment with compounds.
(§2) • HCT116 cells (ATCC, #CCL-247) • McCoys 5A with L-glutamine (Cellgro, #10-050-CV) • 10% FCS (Cellgro, #35-010-CV) • D-PBS without CaCl2 and MgCl2 (Cellgro, #21-031-CV) • Trypsin/EDTA (Cellgro, #25-052-CL) • BSA (Calbiochem, 126593) • Cell Extraction Buffer (Invitrogen FNN0011) • Protease inhibitor cocktail (Sigma P-2714) • PMSF 0.3M stock in DMSO (Sigma P7626) • Antibody-rabbit pMCM2 Ser40 (Abcam, AB133243) • Antibody-goat MCM2 (Bethyl #A300-122A) • Antibody-goat Anti Rabbit IgG HRP (Thermo, 31462) • SuperSignal ELISA Pico Chemiluminescent Substrate (Perbio Science UK Ltd 37069) • 10×PBS (Growcells, MRGF-6236) • Triton X100 (Sigma, P-T8787) • DMSO (Fisher, D128-1) • 2-Propanol (J. T. Baker, 9095-03) Method • Seed 1×10^6 HCT116 cells into each of two 175 cm^2 flask containing 30 mL Cell Growth Media and incubate at 37° C., 5% CO2 for 3 days. • Harvest the cells from one T175 cm^2 flask and count. • Dilute with Cell Growth Media to a cell density of 2×10^5. Dispense 100 μL to each well (20,000 HCT116 cells/well) of TC treated 96-well plate(s). • Allow cells to settle overnight in incubator set at 37° C. and 5% CO2. • Cell treatment: Transfer 0.25 μL/well from the compound plate to the wells of the cell plate(s). This is a 1:400 dilution of compound in the assay. • Once all cells are treated place the cells back to the incubator and incubate for either 6 hours (Method 2A) or 18 hours (Method 2B). • Dilute the capture antibody (total MCM2#A300-122A) 1 in 250 in the required volume of PBS (5 mL per assay plate, plus 5 mL for dead volume) and add 50 μL to each well of a Hybond plate except wells A12 & B12. Seal the plate and incubate at room temperature for a minimum of 2 hours. • Defrost aliquot of Invitrogen Cell Extraction Buffer (FNN0011) on ice and supplement with appropriate volume of both Sigma protease inhibitor cocktail (P-2714) and PMSF (final conc 1 mM from a 1 M stock in DMSO). • After the 6 hour or 18 hour cell treatment time, tap out the media from the assay plates and place them in the −70° C. freezer for at least 5 minutes. • Flick out the remaining liquid in the previously prepared capture Ab plate(s) and add 200 μL 2% BSA per well. Incubate for 1 hour at room temperature. • Remove plates from freezer and add 20 μL of ice cold complete lysis buffer. Incubate cells for 30 minutes at 4° C. • Add 30 μL per well 2% BSA • At the end of the 1 hour incubation, wash the Capture/ELISA plate(s) with Wash Buffer on the BioTek plate washer. • Transfer 40 μL per well of the lysis plate(s) to the same wells in the Capture/ELISA plate. Incubate cells overnight at 4° C. • At the end of the overnight incubation, wash the ELISA plate(s) with Wash Buffer on BioTek plate washer. • Prepare Detection Antibody Buffer and dispense 50 μL to all wells of ELISA plate(s) except wells G1 & H1. Cover plate and incubate at room temperature for 2 hours with gentle shaking. • At the end of the 2 hour incubation, wash the ELISA plate(s) with Wash Buffer on the BioTek plate washer. • Prepare the Conjugated Antibody Buffer and dispense 50 μL to all wells of ELISA plate(s). • Cover the plate and incubate at room temperature for 1 hour with gentle shaking. • At the end of the 1 hour incubation, wash the ELISA plate(s) with Wash Buffer on the BioTek plate washer. • Prepare Substrate Buffer and dispense 50 μL to all wells of ELISA plate(s). • Incubate for a minimum of 10 minutes and read plates on the EnVision 2100 Multilabel Reader (Mirror: Luminescence (404) & Luminescence 700 (212); Measurement Height: 6.5 mm; Measurement Time: 0.2 s). Method 3

[2] = test system: Cdc7 (pS40MCM2 levels in HCT116 cells); test: Cdc7 Cell Pharmacodynamics Assay Method 2B: pS40MCM2 levels in HCT116 cells, 18 hours; format: cell-based; details: Homo sapiens, HCT-116, read-out: Biomarker Method 2B (pEC50) (converted)
Excerpt: as §1, §2

[3] = test system: Cdc7 (pS53MCM2 levels in SW48 cells); test: Cdc7 Cell Pharmacodynamics Assay Method 3: pS53MCM2 levels in SW48 cells, 6 hours; format: cell-based; details: Homo sapiens, SW48, 6 h, read-out: Biomarker Method 3 (pEC50) (converted)
Excerpt: This protocol describes a method to investigate the inhibition of Cdc7 activity by measuring pS53MCM2 levels in cells, after treatment with compounds.
• SW48 cells • RPMI 1640 (Sigma, R5886) • 10% FCS (Sera Laboratories International Ltd, EU000F Batch:108005) • 100× L-Glutamine (Invitrogen, 25030-024) • D-Glucose Solution (10%) (Sigma, G8644) • HEPES Buffer Solution (Sigma, 83264) • Sodium Pyruvate (Sigma, S8636) • PBS (Fisger, BP399-4) • Trypsin/EDTA (Invitrogen 25300-054) • 2% BSA in PBS • Cell Extraction Buffer (Invitrogen FNN0011) • Protease inhibitor cocktail (Sigma P-2714) • PMSF 0.3M stock in DMSO (Sigma P7626) • Antibody-rabbit pMCM2 Ser53 (Bethyl #A300-756A) • Antibody-goat MCM2 (Bethyl #A300-122A) • Antibody-goat Anti Rabbit IgG HRP (Perbio Science UK Ltd 31462) • SuperSignal ELISA Pico Chemiluminescent Substrate (Perbio Science UK Ltd 37070) Method • Plate 30,000 SW48 cells per well in standard TC treated 96 well plate in 100 μL complete RPMI 1640 medium. • Allow cells to settle overnight in incubator set at 37° C. and 5% CO2. • Cell treatment: prepare a 384 well plate containing 80 μl PBS/well. The PBS should be at room temperature—to be referred to as intermediate plate. Transfer 2 μL of compound from mother plate to intermediate (daughter plate) 1:40 dilution, then 5 μL intermediate to cell (daughter) plate. • Once all cells are treated place the cells back to the incubator and incubate for 6 hours. • Dilute the capture antibody (total MCM2#A300-122A) 1 in 250 in the required volume of PBS (5 mL per assay plate, plus 5 mL for dead volume) and add 50 μL to each well of a Hybond plate. Seal the plate and incubate at room temperature for a minimum of 2 hours. • Defrost aliquot of Invitrogen Cell Extraction Buffer (FNN0011) on ice and supplement with appropriate volume of both Sigma protease inhibitor cocktail (P-2714) and PMSF (final conc 1 mM from a 1 M stock in DMSO). • After the 6 hour cell treatment time, tap out the media from the assay plates and place them in the −80° C. freezer for at least 5 minutes. • Remove plates from freezer and add 20 μL of ice cold complete lysis buffer, with the multidrop. Incubate cells for 30 minutes at 4° C. • Add 80 μL per well 2% BSA. • Flick out the remaining liquid from the capture plate and transfer 80 μL from the lysis plate to the same wells in the capture/ELISA plate, using the Biomek. Cover with plate seal and incubate plates overnight at 4° C. • Wash plates with PBS, remove any residual remaining liquid and add 50 μL per well of pMCM2 Ser53 antibody (#A300-756A) diluted 1 in 100 in 2% BSA. Cover plate and incubate at room temperature for 2 hours with gentle shaking. • Wash plates with PBS, remove any residual remaining liquid and Incubate with 50 μL goat anti rabbit antibody (1 in 800 dilution in 2% BSA), for 1 hour at room temperature. • Wash plates with PBS, remove any residual remaining liquid and add 50 μL mixed SuperSignal Pico substrate. • Incubate each plate for 5 minutes at room temperature shielding the plates from direct light (with a cover plate). Read plates with the luminescent detection.

Cdc7/Dbf4, sequence (O00311 whole entry): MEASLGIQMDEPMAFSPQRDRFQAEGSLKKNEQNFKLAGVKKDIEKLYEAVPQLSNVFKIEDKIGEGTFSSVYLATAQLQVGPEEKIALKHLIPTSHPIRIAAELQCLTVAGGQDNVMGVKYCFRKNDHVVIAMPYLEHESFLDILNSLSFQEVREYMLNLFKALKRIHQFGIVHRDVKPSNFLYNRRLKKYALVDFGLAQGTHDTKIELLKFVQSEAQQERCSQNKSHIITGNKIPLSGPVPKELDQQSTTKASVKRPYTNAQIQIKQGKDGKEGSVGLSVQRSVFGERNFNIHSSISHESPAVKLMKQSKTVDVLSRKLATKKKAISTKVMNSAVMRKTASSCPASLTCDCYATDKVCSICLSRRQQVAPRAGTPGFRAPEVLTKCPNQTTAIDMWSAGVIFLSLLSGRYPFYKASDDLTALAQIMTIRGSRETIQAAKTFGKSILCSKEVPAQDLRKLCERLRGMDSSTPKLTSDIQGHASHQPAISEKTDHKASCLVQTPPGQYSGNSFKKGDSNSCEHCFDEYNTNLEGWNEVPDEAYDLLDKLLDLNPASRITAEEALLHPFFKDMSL
Cdc7/Dbf4, sequence (Q9UBU7 whole entry partner): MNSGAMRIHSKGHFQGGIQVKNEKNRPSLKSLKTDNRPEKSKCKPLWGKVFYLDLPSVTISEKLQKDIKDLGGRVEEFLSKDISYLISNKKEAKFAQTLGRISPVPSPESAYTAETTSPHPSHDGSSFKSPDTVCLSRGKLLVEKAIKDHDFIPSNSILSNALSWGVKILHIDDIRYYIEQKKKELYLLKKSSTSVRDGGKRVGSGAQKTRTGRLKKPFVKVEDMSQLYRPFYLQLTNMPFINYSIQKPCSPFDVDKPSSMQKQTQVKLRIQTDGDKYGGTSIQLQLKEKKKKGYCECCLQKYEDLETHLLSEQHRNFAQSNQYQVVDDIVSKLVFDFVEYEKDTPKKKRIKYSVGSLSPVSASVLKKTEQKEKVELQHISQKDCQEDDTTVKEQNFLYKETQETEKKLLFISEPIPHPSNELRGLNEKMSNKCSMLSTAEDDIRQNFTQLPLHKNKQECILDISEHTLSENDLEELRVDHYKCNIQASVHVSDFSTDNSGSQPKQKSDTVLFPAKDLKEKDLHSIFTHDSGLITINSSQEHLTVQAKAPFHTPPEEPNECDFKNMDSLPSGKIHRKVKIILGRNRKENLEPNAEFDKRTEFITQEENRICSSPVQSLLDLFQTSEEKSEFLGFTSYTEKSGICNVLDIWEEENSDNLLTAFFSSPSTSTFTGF

SMILES	IC50 (Cdc7/Dbf4) [nM]	EC50 [1] [nM]	EC50 [3] [nM]	EC50 [2] [nM]
N[C@@H]1CCCCN(c2nc(-c3ccnc(F)c3)[nH]c(=O)c2Cl)C1 [Compound 183, 4-[(3R)-3-aminoazepan-1-yl]-5-chloro-2-(2-fluoro-4-pyridyl)-1H-pyrimidin-6-one 2,2,2-trifluoroacetic acid]	0.513	148		
N[C@H]1CCCCN(c2nc(-c3ccnc(F)c3)[nH]c(=O)c2Cl)C1 [Compound 188]	1.74	170		
O=c1[nH]c(-c2ccnc(F)c2)nc(N2CCNCC(O)C2)c1Cl (stereo not shown) [Compound 190]	0.708	741		
O=c1[nH]c(-c2ccnc(F)c2)nc(N2C3CCC2COC3)c1Cl [Compound 192]	0.813	89.1		49
CN[C@@H]1CCCN(c2nc(-c3ccnc(F)c3)[nH]c(=O)c2Cl)C1 [Compound 196]	1.91	72.4		
CN[C@H]1CCCN(c2nc(-c3ccnc(F)c3)[nH]c(=O)c2Cl)C1 [Compound 197]	2.4	316		
O=C1CCCN(c2nc(-c3ccnc(F)c3)[nH]c(=O)c2Cl)CC1 [Compound 203]	2.95	363		
CC[C@@H]1CN(c2nc(-c3ccnc(F)c3)[nH]c(=O)c2Cl)CCO1 [Compound 205]	1.41	275		
O=c1[nH]c(-c2ccnc(F)c2)nc(N2CCC3CCNCC32)c1Cl (stereo not shown) [Compound 221]	2.88	1620		562
O=c1[nH]c(-c2ccnc(F)c2)nc(N2CCC3NCCCC32)c1Cl (stereo not shown) [Compound 223]	2.88	56.2		47.9
CC(=O)NC1CCN(c2nc(-c3ccnc(F)c3)[nH]c(=O)c2Cl)CC1 [Compound 232]	1.02	2000		977
O=C1CCN(c2nc(-c3ccnc(F)c3)[nH]c(=O)c2Cl)CC1 [Compound 234]	1.38	38.9		
N[C@@H]1CN(c2nc(-c3ccnc(F)c3)[nH]c(=O)c2Cl)CC[C@H]1O [Compound 235]	1.2	1120		
O=c1[nH]c(-c2ccnc(F)c2)nc(N2CCC3NCCC32)c1Cl (stereo not shown) [Compound 243]	2	288		
O=c1[nH]c(-c2ccnc(F)c2)nc(N2C3CCCC2COC3)c1Cl [Compound 334]	0.724	135		61.7

Continued, in another order:

IC50 (Cdc7/Dbf4) [nM]	EC50 [1] [nM]	EC50 [3] [nM]	SMILES	EC50 [2] [nM]
0.617	38		NC1CN(c2nc(-c3ccnc(F)c3)[nH]c(=O)c2Cl)CCC1F (mixture of isomers) [Compound 252]	
0.49	40.7		C[C@H]1CNCCN1c1nc(-c2ccnc(F)c2)[nH]c(=O)c1Cl [Compound 326]	
0.575	3.89		C[C@@H]1COCCN1c1nc(-c2ccnc(F)c2)[nH]c(=O)c1Cl [Compound 328]	
1.23	347		C[C@H]1COCCN1c1nc(-c2ccnc(F)c2)[nH]c(=O)c1Cl [Compound 333]	87.1
0.479		110	CC1(C)COCCN1c1nc(-c2ccnc(F)c2)[nH]c(=O)c1Cl [Compound 339]	10.7
1.15		89.1	CC1(C)CNCCN1c1nc(-c2ccnc(F)c2)[nH]c(=O)c1Cl [Compound 358]	2.45
0.646	339		O=C1CNCCN(c2nc(-c3ccnc(F)c3)[nH]c(=O)c2Cl)C1 [Compound 412, 1-[5-chloro-2-(2-fluoro-4-pyridyl)-6-oxo-1H-pyrimidin-4-yl]-1,4-diazepan-6-one 2,2,2-trifluoroacetic acid]	
